Literature values, collected in US20040101549A1, “Treatments” (priority 2002, published 2004).

polyestradiol phosphate [PEP]
overall and cardiovascular mortality versus maximum androgen blockade (915 patients randomized, over 6 years, Hedlund & Henriksson): equivalent | long-term cardiovascular protection (epidemiological comparison to an age-standardized population, Aro): significant long-term cardiovascular protection | reduction of short-term cardiovascular morbidity (intramuscular, first line CaP therapy, Mikkola et al): over 90%
